Experimental data reported in PMC8619434 (Viruses, 2021).
pIC50: −log10 of the molar value. “Also recorded” adds a separate entry of the source.

How the values were obtained:
[1] = system: SARS-CoV-2 spike protein pseudovirus; conditions: Caco-2
[2] = system: SARS-CoV-2 spike protein pseudovirus; assay type: cell-based
MERS-CoV-S pseudovirus = assay type: cell-based
SARS-CoV-1-S pseudovirus = assay type: cell-based
[3] = system: SARS-CoV-2 spike protein pseudovirus; assay: organism not typed; assay type: cell-based
[4] = system: SARS-CoV-2 spike protein pseudovirus; assay type: cell-based; remark: listed apart in the source
[5] = system: SARS-CoV-2 spike protein pseudovirus; assay type: cell-based; remark: listed apart in the source
VSV-G pseudovirus = assay: microbe, parasite or virus in culture; assay type: cell-based, vesicular stomatitis virus
[6] = system: SARS-CoV-2 spike protein pseudovirus; assay type: cell-based; remark: listed apart in the source
[7] = within current drug treatment regimes; ref PubChem database; read-out: peak serum concentration (Cmax); cited from earlier work
[8] = system: SARS-CoV-2 spike protein pseudovirus; assay type: cell-based; remark: listed apart in the source
in vitro = conditions: human, % Viability of SARS-2-Spike pv

SMILES	inhibition of SARS-CoV-2 pseudovirus infection of Caco2 cells [1]	inhibition of SARS-CoV-2 pseudovirus infection of A549-ACE2 cells [2]	inhibition of MERS-CoV-S pseudovirus infection (MERS-CoV-S pseudovirus)	inhibition of SARS-CoV-1-S pseudovirus infection (SARS-CoV-1-S pseudovirus)	% Infectivity of SARS-2-Spike pv [3]	inhibition of SARS-CoV-2 pseudovirus infection of Vero cells [4]	% infectivity of SARS-CoV-2 pseudovirus in Calu3 cells [5]	% Infectivity of VSV-G pv (VSV-G pseudovirus)	% infectivity, drug added at 1 hpi (post-entry) [6]	Cmax [7] [nM]	% infectivity in attachment assay [8]	activity at 10 µM ([3]; 293T/ACE2, 48 h, read-out: % Infectivity of SARS-2-Spike pv) [%]	pIC50 ([3]; 293T/ACE2, read-out: IC50 of SARS-CoV-2-S pseudovirus infectivity)	activity at 10 µM (VSV-G pseudovirus; Pseudovirus, 293T/ACE2, read-out: % Infectivity of VSV-G pv) [%]	viability (in vitro) [%]
CC(C)OC(=O)OCOP(=O)(CO[C@H](C)Cn1cnc2c(N)ncnc21)OCOC(=O)OC(C)C.O=C(O)/C=C/C(=O)O [tenofovir, tenofovir disoproxil fumarate]	complete inhibition	complete inhibition	completely inhibited	completely inhibited	completely inhibited	complete inhibition	complete inhibition	potently inhibited; also recorded: completely inhibited	complete inhibition	–	–	–	–	–	–
CN(C)CC/C=C1/c2ccccc2Sc2ccc(Cl)cc21 [chlorprothixene]	–	–	–	–	–	–	44%	–	45%	1400	did not inhibit virus attachment	5	5.71	48	97
